Assay results published in PubChem BioAssay AID248 (DTP/NCI, 2004).
Where “and” joins values, the source holds several entries; their conditions need not be identical. Identical values can stand only once. Inconclusive results and toxic doses are left out. No stated cut-off is given here; in the data, active means T/C of 150% or more; inactive means T/C below 125%.

Test system: L1210 leukemia ip in BDF1 mice, survival T/C
Assay: NCI In Vivo Anticancer Drug Screen. Data for tumor model L1210 Leukemia (intraperitoneal) in B6D2F1 (BDF1) mice
Conditions: endpoint: mean survival time, higher = longer survival
Outline: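 Ratio derived from survival: compound-dosed mice over vehicle-dosed mice, all bearing a transplantable tumor.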

[1] = dose: 50.0 mg/kg/injection, schedule: Q01DX009 (ip), vehicle: Klucel (hydroxypropylcellulose) (HPC)
[2] = dose: 100.0 mg/kg/injection, schedule: Q01DX009 (ip), vehicle: Klucel (hydroxypropylcellulose) (HPC)
[3] = dose: 200.0 mg/kg/injection, schedule: Q01DX009 (ip), vehicle: Klucel (hydroxypropylcellulose) (HPC)
[4] = dose: 100.0 mg/kg/injection, schedule: Q04DX003 (ip), vehicle: saline with Tween-80
[5] = dose: 75.0 mg/kg/injection, schedule: Q01DX001 (ip), vehicle: saline

Measured: T/C

CCOC(=O)C(Cc1cc(C(C)(C)C)c(O)c(C(C)(C)C)c1)(NC=O)C(=O)OCC
inactive: [1] 103 % of control | [2] 100 % of control | [3] 96 % of control

O=C(Cn1ccc(=O)[nH]c1=O)c1cccs1
inactive: dose: 100.0 mg/kg/injection, schedule: Q01DX009 (ip), vehicle: saline with Tween-80 104 % of control | [4] 98 % of control | dose: 200.0 mg/kg/injection, schedule: Q01DX009 (ip), vehicle: saline with Tween-80 96 % of control | dose: 200.0 mg/kg/injection, schedule: Q04DX003 (ip), vehicle: saline with Tween-80 96 % of control | dose: 400.0 mg/kg/injection, schedule: Q01DX009 (ip), vehicle: saline with Tween-80 96 % of control | dose: 400.0 mg/kg/injection, schedule: Q04DX003 (ip), vehicle: saline with Tween-80 95 % of control

CCOP(=O)(OCC)Oc1cc(C)c(N(C)C)c(C)c1
inactive: [5] 101 % of control | dose: 150.0 mg/kg/injection, schedule: Q01DX001 (ip), vehicle: saline 90 % of control

OCCCc1cc(Br)ccc1O
inactive: dose: 50.0 mg/kg/injection, schedule: Q01DX001 (ip), vehicle: carboxymethylcellulose (CMC) 105 % of control | dose: 100.0 mg/kg/injection, schedule: Q01DX001 (ip), vehicle: carboxymethylcellulose (CMC) 100 % of control | dose: 200.0 mg/kg/injection, schedule: Q01DX001 (ip), vehicle: carboxymethylcellulose (CMC) 100 % of control | dose: 400.0 mg/kg/injection, schedule: Q01DX001 (ip), vehicle: carboxymethylcellulose (CMC) 92 % of control

O=C(Nc1ccc(Br)cc1C(=O)O)c1cccc(Br)c1
inactive: dose: 100.0 mg/kg/injection, schedule: Q01DX001 (ip), vehicle: other 103 % of control

COC(=O)C1CCCC(=O)C1C(=O)OC (stereo unspecified)
inactive: dose: 100.0 mg/kg/injection, schedule: Q04DX003 (ip), vehicle: other 106 % of control | dose: 200.0 mg/kg/injection, schedule: Q04DX003 (ip), vehicle: other 97 % of control | dose: 400.0 mg/kg/injection, schedule: Q04DX003 (ip), vehicle: other 104 % of control

CNC(=O)C(c1ccccc1)C(O)(c1ccccc1)c1ccccc1 (stereo unspecified)
inactive: dose: 50.0 mg/kg/injection, schedule: Q01DX001 (ip), vehicle: saline 96 % of control | dose: 100.0 mg/kg/injection, schedule: Q01DX001 (ip), vehicle: saline 93 % of control | dose: 200.0 mg/kg/injection, schedule: Q01DX001 (ip), vehicle: saline 98 % of control | dose: 400.0 mg/kg/injection, schedule: Q01DX001 (ip), vehicle: saline 87 % of control

CC1(c2ccccc2)SC(C)(c2ccccc2)SC(c2ccccc2)(c2ccccc2)S1 (stereo unspecified)
inactive: dose: 100.0 mg/kg/injection, schedule: Q01DX001 (ip), vehicle: Klucel (hydroxypropylcellulose) (HPC) 100 % of control | dose: 200.0 mg/kg/injection, schedule: Q01DX001 (ip), vehicle: Klucel (hydroxypropylcellulose) (HPC) 98 % of control | dose: 400.0 mg/kg/injection, schedule: Q01DX001 (ip), vehicle: Klucel (hydroxypropylcellulose) (HPC) 91 % of control

COC(=O)C1=C(C(=O)OC)[C@H]2O[C@H]1[C@@H]1O[C@@H]12
inactive: dose: 6.25 mg/kg/injection, schedule: Q01DX009 (ip), vehicle: saline 104 % of control | dose: 12.5 mg/kg/injection, schedule: Q01DX001 (ip), vehicle: saline 99 % of control | dose: 12.5 mg/kg/injection, schedule: Q01DX009 (ip), vehicle: saline 100 % of control | dose: 25.0 mg/kg/injection, schedule: Q01DX001 (ip), vehicle: saline 100 % of control

CC12CCC3c4ccc(Oc5ccccc5N)cc4CCC3C1CCC2=O (stereo unspecified)
inactive: dose: 100.0 mg/kg/injection, schedule: Q01DX001 (sc), vehicle: steriod suspending solution 101 % of control | dose: 200.0 mg/kg/injection, schedule: Q01DX001 (sc), vehicle: steriod suspending solution 95 % of control | dose: 400.0 mg/kg/injection, schedule: Q01DX001 (sc), vehicle: steriod suspending solution 89 % of control

CC1CC/C(=C\c2ccccc2)C(=O)/C1=C/c1ccccc1 (stereo unspecified)
inactive: dose: 25.0 mg/kg/injection, schedule: Q01DX009 (ip), vehicle: DMSO 92 % of control | dose: 50.0 mg/kg/injection, schedule: Q01DX009 (ip), vehicle: DMSO 94 % of control | dose: 100.0 mg/kg/injection, schedule: Q01DX009 (ip), vehicle: DMSO 94 % of control and 91 % of control | dose: 100.0 mg/kg/injection, schedule: Q04DX003 (ip), vehicle: DMSO 105 % of control | dose: 200.0 mg/kg/injection, schedule: Q01DX009 (ip), vehicle: DMSO 102 % of control | dose: 200.0 mg/kg/injection, schedule: Q04DX003 (ip), vehicle: DMSO 100 % of control | dose: 400.0 mg/kg/injection, schedule: Q04DX003 (ip), vehicle: DMSO 95 % of control

CN(C)N=Nc1cc2c(cc1O)CC[C@@H]1[C@@H]2CC[C@]2(C)C(=O)CC[C@@H]12
inactive: dose: 25.0 mg/kg/injection, schedule: Q01DX009 (ip), vehicle: Klucel (hydroxypropylcellulose) (HPC) 97 % of control | [1] 90 % of control | dose: 50.0 mg/kg/injection, schedule: Q04DX002 (ip), vehicle: Klucel (hydroxypropylcellulose) (HPC) 90 % of control | [2] 110 % of control | dose: 100.0 mg/kg/injection, schedule: Q04DX002 (ip), vehicle: Klucel (hydroxypropylcellulose) (HPC) 90 % of control | [3] 103 % of control | dose: 200.0 mg/kg/injection, schedule: Q04DX002 (ip), vehicle: Klucel (hydroxypropylcellulose) (HPC) 87 % of control | dose: 400.0 mg/kg/injection, schedule: Q01DX009 (ip), vehicle: Klucel (hydroxypropylcellulose) (HPC) 96 % of control

C[N+]1(CCCCCNC2=CC(=O)C(NCCCCC[N+]3(C)CCCCC3)=CC2=O)CCCCC1
inactive: dose: 0.1 mg/kg/injection, schedule: Q01DX001 (ip), vehicle: saline 96 % of control

O=C(O)/C=C/C(=O)Nc1cccc2c1C(=O)c1ccccc1-2
inactive: [4] 94 % of control

CC(=O)OC1CC2C(=O)CC1(C)C2(C)C (stereo unspecified)
inactive: [5] 102 % of control

CCCCCCCCCCCCCCCc1ccc(C(=O)C[n+]2ccccc2)cc1
inactive: dose: 16.5 mg/kg/injection, schedule: Q01DX009 (ip), vehicle: saline with Tween-80 114 % of control | dose: 25.0 mg/kg/injection, schedule: Q01DX009 (ip), vehicle: saline with Tween-80 120 % of control

O=C(CCl)Nc1ccccn1
inactive: dose: 100.0 mg/kg/injection, schedule: Q04DX003 (ip), vehicle: saline 97 % of control | dose: 200.0 mg/kg/injection, schedule: Q04DX003 (ip), vehicle: saline 97 % of control | dose: 400.0 mg/kg/injection, schedule: Q04DX003 (ip), vehicle: saline 88 % of control
